These results are taken from patent US9284292B2, “Sialochimeric compounds” (THERAPICON S.R.L., priority 2009, dated 2016).

Molecules are shown by their SMILES.

The test system of the experiment is influenza virus A/H1N1(H275Y) (A/Parma/38/2008). The format is cell-based, influenza virus type A.

Broadly, the EC50 is the concentration needed to bring the measured effect to its halfway point. Higher therefore signals a need for much substance. For `CCOC(=O)C1=CC(OC(CC)CC)C(NC(C)=O)C(NC2(C(=O)O)CC(O)C(NC(C)=O)C(CNC34CC5CC(CC(C5)C3)C4)O2)C1` (centres unmarked) [THE 08/01, Amantadine-C7-Neu5Ac—C16H28N2O4], the EC50 turned out to be 14.5 µM and the “antiviral activity in vitro versus influenza virus A/H1N1(H275Y)” value is on record as “comparable to that determined versus A/H1N1”.
